# Measured values taken from ChEMBL document CHEMBL3885881, “DrugMatrix”.
# Species: Rattus norvegicus
# Test: DrugMatrix - Regimen: Daily Repeat
# Assay type: toxicity, organism-based, Sprague-Dawley
# Set-up: regimen Daily Repeat, gender Male, age 6-8 weeks
# Conditions: in vivo, po, route oral GAVAGE, vehicle .5 % CMC; for ABSOLUTE BASOPHIL / ABSOLUTE EOSINOPHIL / ABSOLUTE LYMPHOCYTE / ABSOLUTE MONOCYTE / ABSOLUTE SEGMENTED NEUTROPHIL / BASOPHIL / EOSINOPHIL / ERYTHROCYTE COUNT / HEMATOCRIT / HEMOGLOBIN / LEUKOCYTE COUNT / LYMPHOCYTE / MEAN CORPUSCULAR HEMOGLOBIN / MEAN CORPUSCULAR HEMOGLOBIN CONCENTRATION / MEAN CORPUSCULAR VOLUME / MONOCYTE / NEUTROPHIL / NUCLEATED RED BLOOD CELLS / PLATELET COUNT: tissue Blood; for ALANINE AMINOTRANSFERASE / ALBUMIN / ALKALINE PHOSPHATASE / ASPARTATE AMINOTRANSFERASE / BLOOD UREA NITROGEN / CARBON DIOXIDE / CHLORIDE / CHOLESTEROL / CREATINE PHOSPHOKINASE / CREATININE / GLUCOSE / LACTATE DEHYDROGENASE / LIPASE / PHOSPHORUS / POTASSIUM / SODIUM / TOTAL BILIRUBIN / TOTAL PROTEIN / URIC ACID: tissue Plasma
# [1] = 0 mg/kg, 72 h, dose level Control, time 3 day
# [2] = 0 mg/kg, 120 h, dose level Control, time 5 day
# [3] = 50 mg/kg, 72 h, dose level Low, time 3 day
smiles,measurement,setting,value
CC1(C)[C@H]2CC[C@]1(C)C(=O)C2 [(-)-CAMPHOR],ABSOLUTE BASOPHIL,[1],0 CELLS/uL
same,ABSOLUTE EOSINOPHIL,[1],222.83 CELLS/uL
same,ABSOLUTE LYMPHOCYTE,[1],14453 CELLS/uL
same,ABSOLUTE MONOCYTE,[1],0 CELLS/uL
same,ABSOLUTE SEGMENTED NEUTROPHIL,[1],1490.83 CELLS/uL
same,BASOPHIL,[1],0%
same,EOSINOPHIL,[1],1.33%
same,ERYTHROCYTE COUNT,[1],5.76 x10E6/uL
same,HEMATOCRIT,[1],36.52%
same,HEMOGLOBIN,[1],13.45 G/DL
same,LEUKOCYTE COUNT,[1],16.17 x10E3/uL
same,LYMPHOCYTE,[1],89.33%
same,MEAN CORPUSCULAR HEMOGLOBIN,[1],23.37 pg
same,MEAN CORPUSCULAR HEMOGLOBIN CONCENTRATION,[1],36.85 G/DL
same,MEAN CORPUSCULAR VOLUME,[1],63.47 fL
same,MONOCYTE,[1],0%
same,NEUTROPHIL,[1],9.33%
same,NUCLEATED RED BLOOD CELLS,[1],0 /100WBC
same,PLATELET COUNT,[1],1239.5 x10E3/uL
same,ALANINE AMINOTRANSFERASE,[1],43.83 u/L
same,ALBUMIN,[1],4.27 G/DL
same,ALKALINE PHOSPHATASE,[1],398.83 u/L
same,ASPARTATE AMINOTRANSFERASE,[1],81.17 u/L
same,BLOOD UREA NITROGEN,[1],17.67 mg/dL
same,CARBON DIOXIDE,[1],27.5 mmol/L
same,CHLORIDE,[1],99.17 MEQ/L
same,CHOLESTEROL,[1],74 mg/dL
same,CREATINE PHOSPHOKINASE,[1],331.5 u/L
same,CREATININE,[1],0.2 mg/dL
same,GLUCOSE,[1],171.33 mg/dL
same,LACTATE DEHYDROGENASE,[1],241.67 u/L
same,LIPASE,[1],9.5 u/L
same,PHOSPHORUS,[1],12.25 mg/dL
same,POTASSIUM,[1],6.33 MEQ/L
same,SODIUM,[1],141.28 MEQ/L
same,TOTAL BILIRUBIN,[1],0.15 mg/dL
same,TOTAL PROTEIN,[1],5.98 G/DL
same,URIC ACID,[1],1.63 mg/dL
same,ABSOLUTE BASOPHIL,[2],0 CELLS/uL
same,ABSOLUTE EOSINOPHIL,[2],148.67 CELLS/uL
same,ABSOLUTE LYMPHOCYTE,[2],16020.5 CELLS/uL
same,ABSOLUTE MONOCYTE,[2],29.17 CELLS/uL
same,ABSOLUTE SEGMENTED NEUTROPHIL,[2],1468.33 CELLS/uL
same,BASOPHIL,[2],0%
same,EOSINOPHIL,[2],1%
same,ERYTHROCYTE COUNT,[2],5.78 x10E6/uL
same,HEMATOCRIT,[2],35.77%
same,HEMOGLOBIN,[2],13.4 G/DL
same,LEUKOCYTE COUNT,[2],17.67 x10E3/uL
same,LYMPHOCYTE,[2],90.5%
same,MEAN CORPUSCULAR HEMOGLOBIN,[2],23.22 pg
same,MEAN CORPUSCULAR HEMOGLOBIN CONCENTRATION,[2],37.47 G/DL
same,MEAN CORPUSCULAR VOLUME,[2],61.92 fL
same,MONOCYTE,[2],0.17%
same,NEUTROPHIL,[2],8.33%
same,NUCLEATED RED BLOOD CELLS,[2],0.17 /100WBC
same,PLATELET COUNT,[2],1255.5 x10E3/uL
same,ALANINE AMINOTRANSFERASE,[2],46.5 u/L
same,ALBUMIN,[2],4.38 G/DL
same,ALKALINE PHOSPHATASE,[2],336 u/L
same,ASPARTATE AMINOTRANSFERASE,[2],76.5 u/L
same,BLOOD UREA NITROGEN,[2],20 mg/dL
same,CARBON DIOXIDE,[2],27.5 mmol/L
same,CHLORIDE,[2],101 MEQ/L
same,CHOLESTEROL,[2],71.33 mg/dL
same,CREATINE PHOSPHOKINASE,[2],231.83 u/L
same,CREATININE,[2],0.37 mg/dL
same,GLUCOSE,[2],168.83 mg/dL
same,LACTATE DEHYDROGENASE,[2],174 u/L
same,LIPASE,[2],8.67 u/L
same,PHOSPHORUS,[2],11.48 mg/dL
same,POTASSIUM,[2],6.82 MEQ/L
same,SODIUM,[2],143.8 MEQ/L
same,TOTAL BILIRUBIN,[2],0.2 mg/dL
same,TOTAL PROTEIN,[2],5.98 G/DL
same,URIC ACID,[2],1.83 mg/dL
same,ABSOLUTE BASOPHIL,[3],0 CELLS/uL
same,ABSOLUTE EOSINOPHIL,[3],203.67 CELLS/uL
same,ABSOLUTE LYMPHOCYTE,[3],12113.67 CELLS/uL
same,ABSOLUTE MONOCYTE,[3],0 CELLS/uL
same,ABSOLUTE SEGMENTED NEUTROPHIL,[3],916 CELLS/uL
same,BASOPHIL,[3],0%
same,EOSINOPHIL,[3],1.33%
same,ERYTHROCYTE COUNT,[3],5.4 x10E6/uL
same,HEMATOCRIT,[3],33.83%
same,HEMOGLOBIN,[3],12.8 G/DL
same,LEUKOCYTE COUNT,[3],13.23 x10E3/uL
same,LYMPHOCYTE,[3],91.33%
same,MEAN CORPUSCULAR HEMOGLOBIN,[3],23.7 pg
same,MEAN CORPUSCULAR HEMOGLOBIN CONCENTRATION,[3],37.87 G/DL
same,MEAN CORPUSCULAR VOLUME,[3],62.67 fL
same,MONOCYTE,[3],0%
same,NEUTROPHIL,[3],7.33%
same,NUCLEATED RED BLOOD CELLS,[3],0 /100WBC
same,PLATELET COUNT,[3],1197.67 x10E3/uL
same,ALANINE AMINOTRANSFERASE,[3],45.67 u/L
same,ALBUMIN,[3],4.13 G/DL
same,ALKALINE PHOSPHATASE,[3],348.67 u/L
same,ASPARTATE AMINOTRANSFERASE,[3],71.33 u/L
same,BLOOD UREA NITROGEN,[3],13.33 mg/dL
same,CARBON DIOXIDE,[3],28.67 mmol/L
same,CHLORIDE,[3],99.67 MEQ/L
same,CHOLESTEROL,[3],58 mg/dL
same,CREATINE PHOSPHOKINASE,[3],220.33 u/L
same,CREATININE,[3],0.19 mg/dL
same,GLUCOSE,[3],174.67 mg/dL
same,LACTATE DEHYDROGENASE,[3],227.67 u/L
same,LIPASE,[3],8 u/L
same,PHOSPHORUS,[3],12.33 mg/dL
same,POTASSIUM,[3],6.44 MEQ/L
same,SODIUM,[3],143.07 MEQ/L
same,TOTAL BILIRUBIN,[3],0.23 mg/dL
same,TOTAL PROTEIN,[3],5.67 G/DL
same,URIC ACID,[3],1.7 mg/dL
